Among the test systems are KM12 colon; EKVX NSCLC; BT-549 breast; MDA-MB-435; HT29 colon; SW-620 colon; HCC-2998 colon; DU-145 prostate; A498 renal; SF-539 CNS.
Assay in all cases: NCI-60 cell line screen, 48 h

The text below walks through data of PubChem BioAssay (NCI).

Each structure is given as a SMILES string.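 A five-concentration, 48-hour dose response in 96-well plates underlies each endpoint, interpolated linearly between surrounding concentrations. GI50 is the concentration that inhibits growth by half. TGI marks complete inhibition of growth.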

As to `C=CCc1c2c(c(OC)c3ccoc13)C(=O)/C(=C/c1ccccc1OC)O2`, the GI50 with KM12 colon was 3.49 µM; in the assay on EKVX NSCLC, 4.41 µM; in the assay on BT-549 breast, 4.44 µM; in the assay with MDA-MB-435, 3.12 µM; with HT29 colon it was 3.98 µM; in the assay with SW-620 colon, 4.24 µM. The GI50 is 2.85 µM in the assay with HCC-2998 colon, 3.19 µM in the assay with DU-145 prostate, 5.81 µM with A498 renal and 5.45 µM with SF-539 CNS. The TGI was 22.3 µM in the assay on KM12 colon; more than 100 µM with EKVX NSCLC; more than 100 µM in the assay on BT-549 breast; more than 100 µM with MDA-MB-435; more than 100 µM with HT29 colon; more than 100 µM in the assay with SW-620 colon. The TGI with HCC-2998 colon was 7.85 µM; with DU-145 prostate it was more than 100 µM; in the assay on A498 renal it was 79.2 µM; with SF-539 CNS it was 72.8 µM.

As to `COc1cc(C2c3cc4c(cc3OC(N3CCCC3)C2C)OCO4)cc(OC)c1OC` (centres undefined), the TGI was 3.68 µM in the assay on KM12 colon; more than 95.5 µM in the assay with EKVX NSCLC; 11.5 µM with BT-549 breast; 1.84 µM in the assay on MDA-MB-435; 1.22 µM in the assay with HT29 colon; more than 33.9 µM in the assay on SW-620 colon. Also, the TGI stood at 4.32 µM with HCC-2998 colon, 11.3 µM with DU-145 prostate, 7.73 µM in the assay with A498 renal and 0.732 µM in the assay on SF-539 CNS.

Regarding `CN(C)S(=O)(=O)c1ccc(NC(=O)COC(=O)c2ccc(S(=O)(=O)N3CCCCC3)cc2)cc1`, the GI50 in the assay with KM12 colon, in the assay with EKVX NSCLC, with BT-549 breast, in the assay with MDA-MB-435, in the assay on HT29 colon and in the assay with SW-620 colon was more than 100 µM in each case. The GI50 in the assay on HCC-2998 colon, in the assay on DU-145 prostate, in the assay on A498 renal and in the assay with SF-539 CNS was more than 100 µM throughout. For the same compound, the TGI in the assay with KM12 colon, with EKVX NSCLC, in the assay with BT-549 breast, in the assay with MDA-MB-435, in the assay on HT29 colon and with SW-620 colon was more than 100 µM throughout. The TGI in the assay on HCC-2998 colon, in the assay with DU-145 prostate, in the assay on A498 renal and with SF-539 CNS was more than 100 µM in each case.

`CC/C=C\C=C/C(=O)N/C=C/CC1Cc2cccc(O)c2C(=O)O1` (centres undefined): the GI50 in the assay on KM12 colon is 19.2 µM; in the assay on EKVX NSCLC, 38.8 µM; with BT-549 breast it was 25.8 µM; in the assay on MDA-MB-435 it was 3 µM; in the assay with HT29 colon, 23.5 µM; in the assay with SW-620 colon it was 13.8 µM. The GI50 was 19.2 µM in the assay on HCC-2998 colon, 17.3 µM in the assay on DU-145 prostate, 20.6 µM with A498 renal and 13.9 µM with SF-539 CNS. Further, the TGI in the assay on KM12 colon was 72.1 µM; in the assay with EKVX NSCLC, more than 100 µM; in the assay on BT-549 breast, 87.3 µM; in the assay on MDA-MB-435, 10.7 µM; with HT29 colon, 53.7 µM; in the assay on SW-620 colon, 28.2 µM. Besides, the TGI in the assay with HCC-2998 colon amounted to 43.5 µM; in the assay on DU-145 prostate, 52 µM; in the assay on A498 renal, 59.9 µM; in the assay with SF-539 CNS it was 37.1 µM.

Take `CCCN=Cc1cc(Cc2ccc(O)c(C=NCCC)c2)ccc1O`: the TGI in the assay with KM12 colon was 22 µM; with EKVX NSCLC, 26.4 µM; with BT-549 breast, more than 100 µM; with MDA-MB-435 it was more than 100 µM; in the assay with HT29 colon, 27.6 µM; in the assay on SW-620 colon, 15.9 µM. In addition, the TGI in the assay on HCC-2998 colon is 27.8 µM; in the assay with DU-145 prostate, 31.1 µM; with A498 renal, 8.97 µM; with SF-539 CNS it was 9 µM.

On to `COC1(C(=O)N[C@@H](C)c2ccc(-n3cc(F)cn3)nc2)CCC(c2nc(C)cc(Nc3cc(C)[nH]n3)n2)CC1` (some centres undefined), for which the GI50 in the assay with KM12 colon is 0.0676 µM; in the assay on EKVX NSCLC it was 0.688 µM; in the assay with BT-549 breast, 0.627 µM; in the assay on MDA-MB-435, 8.27 µM; with HT29 colon, 2.31 µM; in the assay on SW-620 colon, 2.32 µM. The GI50 was 11.1 µM in the assay with HCC-2998 colon, 1.8 µM in the assay on DU-145 prostate, 0.147 µM in the assay on A498 renal and 0.314 µM with SF-539 CNS. Further, the TGI was found to be 18.2 µM in the assay on KM12 colon; 2.94 µM with EKVX NSCLC; 6.01 µM with BT-549 breast; 21.1 µM with MDA-MB-435; 22.4 µM in the assay with HT29 colon; 24.2 µM in the assay on SW-620 colon. The TGI in the assay with HCC-2998 colon came to 23.3 µM; with DU-145 prostate, 4.63 µM; with A498 renal it was 0.7 µM; in the assay on SF-539 CNS, 1.56 µM.

Consider `COc1ccc(N2C(C)=C(C#N)C34C(=O)N(c5ccccc5)C(=O)C3=C(O)C=CC24O)cc1` (centres undefined), for which the GI50 with KM12 colon is 10 µM; with EKVX NSCLC it was 22.3 µM; in the assay on BT-549 breast, 9.75 µM; in the assay with MDA-MB-435, 5.5 µM; in the assay on HT29 colon, 12.3 µM; in the assay with SW-620 colon it was 10.3 µM. Besides, the GI50 in the assay on HCC-2998 colon was 9.88 µM; with DU-145 prostate, 10.5 µM; in the assay on A498 renal, 18.6 µM; with SF-539 CNS, 6.82 µM. The TGI in the assay with KM12 colon is 26.6 µM; in the assay with EKVX NSCLC it was 85.8 µM; with BT-549 breast, 22.4 µM; in the assay with MDA-MB-435, 28.7 µM; in the assay on HT29 colon, 28.3 µM; with SW-620 colon, 24.6 µM. Besides, the TGI with HCC-2998 colon stood at 23.6 µM; in the assay on DU-145 prostate it was 26.8 µM; in the assay with A498 renal, 48.2 µM; in the assay with SF-539 CNS it was 25.3 µM.

On to `COC(=O)[C@]12CC[C@@H](C)[C@H](C)[C@@H]1C1=CC[C@@H]3[C@@]4(C)C[C@@H](OC(C)=O)[C@H](O)[C@@](C)(COC(C)=O)[C@@H]4[C@H](O)C[C@@]3(C)[C@]1(C)CC2`, for which the GI50 in the assay with KM12 colon is 2.65 µM; in the assay on EKVX NSCLC, 2.22 µM; with BT-549 breast, 2.18 µM; in the assay on MDA-MB-435, 2.95 µM; in the assay with HT29 colon, 1.82 µM; in the assay with SW-620 colon, 2.75 µM. In addition, the GI50 was 2.14 µM in the assay on HCC-2998 colon, 3.48 µM in the assay with DU-145 prostate, 2.04 µM in the assay on A498 renal and 3.47 µM in the assay on SF-539 CNS. In addition, the TGI with KM12 colon came to 7.9 µM; in the assay on EKVX NSCLC, 6.69 µM; in the assay with BT-549 breast, 5.71 µM; with MDA-MB-435, 10.7 µM; in the assay with HT29 colon, 3.7 µM; in the assay with SW-620 colon, 8.76 µM. The TGI in the assay with HCC-2998 colon was found to be 4.57 µM; in the assay on DU-145 prostate, 11.9 µM; in the assay with A498 renal, 7.4 µM; with SF-539 CNS, 13.3 µM.

Consider `CC(C)(C)C#CC1=C(Br)C(=O)OC1`, for which the GI50 was 1.32 µM in the assay on KM12 colon; 1.69 µM in the assay with EKVX NSCLC; 4.89 µM in the assay with BT-549 breast; 7.44 µM in the assay on MDA-MB-435; 0.116 µM in the assay on HT29 colon; 1.59 µM with HCC-2998 colon. In addition, the GI50 in the assay on DU-145 prostate was 1.53 µM; in the assay with A498 renal, 4.04 µM; with SF-539 CNS it was 2.74 µM. In addition, the TGI was 3.6 µM in the assay on KM12 colon; 4.71 µM in the assay on EKVX NSCLC; 19.7 µM with BT-549 breast; 24.1 µM in the assay on MDA-MB-435; more than 100 µM in the assay on HT29 colon; more than 24.9 µM in the assay with SW-620 colon. Besides, the TGI in the assay on HCC-2998 colon turned out to be 3.12 µM; in the assay with DU-145 prostate, 3.31 µM; with A498 renal, 15.1 µM; in the assay on SF-539 CNS, 11.1 µM.

Take `CC(C)(C)C[C@H]1NC(C(=O)NCC[C@H](O)CO)[C@H](c2cccc(Cl)c2)[C@@]12C(=O)Nc1cc(Cl)c(F)cc12` (some centres undefined): the GI50 with KM12 colon is 14.7 µM; in the assay on EKVX NSCLC it was 13.3 µM; with BT-549 breast, 16.3 µM; in the assay on MDA-MB-435, 14.1 µM; in the assay with HT29 colon, 17 µM; with SW-620 colon, 16.6 µM. In addition, the GI50 was 16.2 µM in the assay with HCC-2998 colon, 16.1 µM with DU-145 prostate, 4.41 µM with A498 renal and 15.5 µM in the assay with SF-539 CNS. The TGI came to 28.8 µM with KM12 colon; 29.1 µM with EKVX NSCLC; 34.2 µM with BT-549 breast; 29.6 µM in the assay with MDA-MB-435; 32.4 µM with HT29 colon; 34.1 µM in the assay with SW-620 colon. In addition, the TGI with HCC-2998 colon was 31.1 µM; in the assay with DU-145 prostate, 30.6 µM; in the assay on A498 renal, 18.7 µM; in the assay with SF-539 CNS, 31.8 µM.

Consider `CCCCOc1ccc(NC(N)=Nc2ccc(Cl)cc2)cc1`, for which the TGI in the assay with KM12 colon was determined as 26.1 µM; with EKVX NSCLC it was 14.7 µM; in the assay with BT-549 breast it was 23.4 µM; in the assay with MDA-MB-435, 23.4 µM; with HT29 colon, 11.3 µM; with SW-620 colon, 16.1 µM. The TGI came out at 2.64 µM in the assay with HCC-2998 colon, 13.6 µM in the assay on DU-145 prostate, 14.5 µM with A498 renal and 6.52 µM in the assay with SF-539 CNS.
